Where no end group is shown, it is not given here.
B1: Alexa-C28 (peptide)
peptide: WMEWDREINNYTSLIHSLIEESQNQQEK
modifications: not checked

Key:
IQN17 = assay: Binding of Alexa-C28 to IQN17, titration measured by capillary zone electrophoresis; design: species or system HIV-1; details: 5 μM Alexa-C28, increasing concentration of IQN17, FIG. 3
Protocol: Eckert et al., Cell 99, 103-115 (1999). C28 was labeled with the fluorescent molecule, Alexa-430 (Molecular Probes) at its carboxyl terminal (Alexa-C28). The binding was measured by titration of labeled C28 with IQN17. The concentration of bound and unbound C28 was measured by capillary zone electrophoresis.
Capillary Electrophoresis Separations. Capillary electrophoresis experiments were conducted on a Beckman Coulter P/ACE System MDQ and a Spectrumedix 9610HTS. […] Separations were conducted with an applied voltage of 30 kV. The capillaries used in the Spectrumedix 9610HTS has an inner diameter of 50 μm, effective length of 50 cm, and an inner surface of fused silica. Separations were conducted with an applied voltage of 13 kV. Separation buffer was 20 mM Sodium Borate, pH=8.5. Peptides traveling passed a fluorescence detector were excited by a laser emitting at 488 nm. The peaks were analyzed using software packages supplied by the instrument companies. In the figures, RFU refers to relative fluorescence units.
Binding of C28 to IQN17: Peptide concentrations were determined by weight. […] The binding affinity of C28 to IQN-17 was determined by a capillary electrophoresis (FIG. 3). […]
The area of the Alexa-C28 peaks in increasing concentrations of IQN-17 was analyzed in comparison to the area of Alexa-C28 in the absence of IQN-17 by capillary zone electrophoresis. […]

[1] = target: IQN17 (HIV-1 (gp41 segment); GCN4-pIQI segment designed)

Molecule	amount of unbound peptide (broader peak on the right) in titration (IQN17)	percent of C28 bound [1]
Alexa-C28: C28 labeled with the fluorescent molecule Alexa-430 at its carboxyl terminal (WMEWDREINNYTSLIHSLIEESQNQQEK-{Alexa‑430})	decreased from 100% to 0%	–
B1	–	80%

— patent US20050208678A1, “Anti-fusion assay” (priority 2001, published 2005)
